Data on one compound can be found in patent publication US12590087B2, “Inhibiting USP36” (Valo Health, Inc., priority 2019, dated 2026).

The assay concerns the target T1, human USP36 (81-461) (Homo sapiens, UniProt Q9P275).
T1 sequence (Q9P275 81-461): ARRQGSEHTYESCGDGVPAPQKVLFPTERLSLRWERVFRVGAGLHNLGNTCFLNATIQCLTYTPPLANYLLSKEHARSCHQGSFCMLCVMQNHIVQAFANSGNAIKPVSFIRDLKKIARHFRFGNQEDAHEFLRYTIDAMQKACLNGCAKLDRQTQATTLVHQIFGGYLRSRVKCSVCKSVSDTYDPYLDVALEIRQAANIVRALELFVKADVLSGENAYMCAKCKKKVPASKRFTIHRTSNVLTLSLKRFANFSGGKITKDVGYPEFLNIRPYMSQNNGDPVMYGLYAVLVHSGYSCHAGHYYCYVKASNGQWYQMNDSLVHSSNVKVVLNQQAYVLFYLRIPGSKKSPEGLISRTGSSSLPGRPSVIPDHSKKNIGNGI
Put plainly: USP36 inhibition biochemical assay. Conditions: read-out: USP 36 IC50; 2 nM human USP36 (81-461), 25 nM Ub-Rh110MP substrate, 30 minutes preincubation with compound, fluorescence rate over 10 minutes.

The IC50 is the concentration that inhibits the measured activity by half.

Protocol: Test compounds were serially diluted in DMSO (Sigma, G7516) to obtain 10-point, 3-fold series. […] Enzyme and substrate concentrations and incubation times were optimized for the maximal signal-to-background while maintaining linear initial velocity conditions at a fixed substrate concentration below Km.
Rates were calculated by: rate=((final FLU−initial FLU)/600 seconds) where final FLU=fluorescence at time 10 minutes, initial FLU=fluorescence at time 0 minutes and 600=duration of reaction in seconds.
Data were reported as percent inhibition compared with control wells based on the following equation: % inh=100*((rate−AveLow)/(AveHigh−AveLow)) where rate=measured rate of fluorescence generated during assay, AveLow=average rate of no enzyme control (n=32), and AveHigh=average rate of DMSO control (n=32).
Data were fitted using the Levenburg Marquardt algorithm.

Consider `O=C(Nc1snnc1C(=O)Nc1ccc(N2CCCC2)cc1)c1cncc(C(F)(F)F)c1` [Compound 1, N-(4-(pyrrolidin-1-yl)phenyl)-5-(5-(trifluoromethyl)nicotinamido)-1,2,3-thiadiazole-4-carboxamide], for which the IC50 was found to be 198 nM.
